Measured values reported in patent publication US20060252733A1, “Betulin, betulin derivatives, betulinic acid and betulinic acid derivatives as novel therapeutics in the treatment of disease of lipid and/or glucose metabolism” (Novelix Pharmaceuticals, Inc., priority 2005, published 2006).

Experiments:
[1] = tested on: human melanoma cell line (518A2); assay: Cell survival (cell counts) after 3 days of treatment; conditions: 3 days, vs untreated controls (=100%)
Procedure: Induction of cell death was evaluated in a human melanoma cell line (518A2) in the presence of simvastatin and NVX-207 alone or in combination. […] After 3 days of treatment, cell numbers were counted. Percentages of survival given are cell numbers compared to untreated controls (=100%). Experiments were repeated three times. Mean values are given.

[2] = tested on: hepatic low density lipoprotein (LDL) receptors; conditions: animals; by increasing the expression of hepatic LDL receptors; cited from earlier work

SMILES	Survival (%) ([1]; Simvastatin 0.5 μmol)	Survival (%) ([1]; Simvastatin 1.0 μmol)	Survival (%) ([1]; Simvastatin 2.0 μmol)	Survival (%) ([1]; Simvastatin 4.0 μmol)	plasma cholesterol levels [2]
CCC(C)(C)C(=O)O[C@H]1C[C@@H](C)C=C2C=C[C@H](C)[C@H](CC[C@@H]3C[C@@H](O)CC(=O)O3)[C@H]21 [Simvastatin, reference compound]	96	40	12	3	–
C=CC[C@@H]1[C@H](O)CC[C@@]2(C)[C@H]1CC[C@@H]1[C@@H]2CC[C@]2(C)[C@@H]([C@H](C)CCCC(C)C)CC[C@@H]12 [LY295427]	–	–	–	–	reduce plasma cholesterol levels
